This is an account of results in publication PMC12720774, “Detergents alter the stability and lipid binding properties of the CD1d immunoreceptor” (Protein Science : A Publication of the Protein Society, 2025).

The target in experiment [1] is T1, recombinant human CD1d ectodomain/β2m complex (hCD1d) (Homo sapiens, UniProt P15813).
T1 construct: TEV protease cleavage site ENLYFQS (C); BirA biotinylation site (C); His7 (C); made in house; host or cells: TurboCHO cells (GenScript)
Description: Intrinsic tryptophan fluorescence (ITF) binding assay. As to the method:
(§1) For ITF assays, the concentration of hCD1d was kept constant, and intrinsic Trp fluorescence (excitation at 285 nm, emission at 335 nm) was measured as a function of increasing detergent concentration (Fossum et al., [2023]) (Figure S2). The change in relative fluorescence intensity (F − F 0/F 0) provides an indication of binding. […] This was due to limited detergent solubility and decreased hCD1d stability in the presence of a large excess of detergent (see below). […] SDS was the exception, for which Trp fluorescence of hCD1d decreased with added detergent. This could indicate a unique conformational change or destabilization of the protein.
(§2) ITF spectra were recorded from 300 to 500 nm using a Horiba FL3‐21 Fluorometer with the excitation wavelength of 285 nm and excitation/emission slits of 6.2 nm. Fluorescence spectra of 50 to 100 nM hCD1d were acquired in the absence and presence of detergents in 1X PBS pH 7.4 at 25°C. Prior to data acquisition, hCD1d and detergent or lipid samples were incubated at 37°C overnight (~12 h) to simulate in vitro and in vivo loading conditions. […] For 18:1 LPC experiments, fluorescence spectra of 100 nM hCD1d were acquired in the absence and presence of 18:1 LPC in 1X PBS pH 7.4 at 25°C. […] For all ITF experiments, the change in fluorescence signal (F − F 0/F 0) was determined at 335 nm. Three replicates were performed, and data are presented as the mean ± standard deviation (n = 3). K D values were fitted with non‐linear regression in GraphPad Prism v10.1.

Experiment [2] addresses T2, recombinant human CD1d ectodomain/β2m complex (hCD1d) (Homo sapiens, UniProt P15813+P61769).
T2 construct: TEV protease cleavage site ENLYFQS (C); BirA biotinylation site (C); His7 (C); made in house; host or cells: TurboCHO cells (GenScript)
The description is as above. As for the experimental part: as §1, §2

A further experiment has as its target hCD1d (Homo sapiens, UniProt P15813+P61769). Nature of the experiment: Nano differential scanning fluorimetry (nanoDSF) thermal stability. The format is binding. On the set-up: TEV protease cleavage site ENLYFQS (C); BirA biotinylation site (C); His7 (C); made in house; host or cells: TurboCHO cells (GenScript). As to conditions: for ΔTm aveage: Figure 5C, nanoDSF, hCD1d with detergent; for ΔT m (NanoDSF): T m difference between hCD1d in the absence and presence of 1000 μM detergent, 1 μM hCD1d; for detergent concentration at which hCD1d appeared to unfold: disappearance of inflection point in ∂(F350/F330)/∂T; for ΔT m (nanoDSF), lipid/hCD1d: absence vs maximum concentration of detergent, 1 μM endo/hCD1d (Figure S10); for ΔT m, detergent class summary: approximate. An excerpt:
We next sought to probe the ability of each detergent to influence the thermal stability of hCD1d. NanoDSF has been previously applied to measure lipid/detergent‐induced thermal stability changes in target proteins (Cecchetti et al., [2021]; Kotov et al., [2019]), but has not yet been applied to ligand binding to CD1. NanoDSF measures the ITF ratio (F 350 nm/F 330 nm) of proteins as a function of temperature to extract thermodynamic parameters. Given that ligand binding typically shifts the melting temperature of proteins, the effect of a ligand on protein stability can be approximated with the ΔT m value (the difference in T m with and without excess ligand) (Cecchetti et al., [2021]; Kotov et al., [2019]). We found all detergents tested to destabilize hCD1d, albeit to different degrees, with ΔT m values ranging from −0.8 to −14.2°C (Figures 4, S4, and Table 1).
Nano differential scanning fluorometry (nanoDSF) was performed using a Prometheus NT.48 (NanoTemper Technologies). Purified hCD1d at 1 μM in 1X PBS pH 7.4 was loaded into nanoDSF grade standard capillaries (NanoTemper Technologies) and exposed to temperatures ranging from 20 to 95°C with a thermal ramping rate of 1°C/min. Excitation power was set to 50%. The ratio of intrinsic fluorescence emission (F 350 nm/F 330 nm) was monitored. Melting temperatures (T m) were obtained from fitting the first derivative plots in the Prometheus NT.48 Software. The experiments were performed in triplicate, and data are presented as the mean ± standard deviation (n = 3).
For experiments with most detergents, prior to data acquisition, hCD1d and detergent or lipid samples were incubated at 37°C overnight (~12 h) to simulate in vitro and in vivo loading conditions. […] For 18:1 LPC experiments: nanoDSF spectra were acquired in the absence and presence of 18:1 LPC in 1X PBS pH 7.4 at 25°C.

[3] abbreviates: detergent with 100 nM hCD1d, 25°C, 1X PBS pH 7.4, apparent, read-out: K D (ITF).
[4] abbreviates: ITF - Kd (uM) average, Figure 5A, detergent binding to hCD1d.
Where [5] appears, read: 0.001 M detergent, 100 nM hCD1d.
[6] abbreviates: Figure 5A, detergent binding to hCD1d, read-out: ITF - Kd (uM) average.
[7] abbreviates: K D (ITF), detergent with 100 nM hCD1d, 25°C, 1X PBS pH 7.4, apparent.

“And” between values parts separate entries of the source, which are not always exact repeats. Identical values can stand only once. “Also recorded” adds a separate entry of the source. Counter-ions that a name gives are not always drawn. Like-named read-outs stand apart in the source and are kept apart here.

T1 sequence (P15813 whole entry, looked up, the tested form may be a part, one chain of several): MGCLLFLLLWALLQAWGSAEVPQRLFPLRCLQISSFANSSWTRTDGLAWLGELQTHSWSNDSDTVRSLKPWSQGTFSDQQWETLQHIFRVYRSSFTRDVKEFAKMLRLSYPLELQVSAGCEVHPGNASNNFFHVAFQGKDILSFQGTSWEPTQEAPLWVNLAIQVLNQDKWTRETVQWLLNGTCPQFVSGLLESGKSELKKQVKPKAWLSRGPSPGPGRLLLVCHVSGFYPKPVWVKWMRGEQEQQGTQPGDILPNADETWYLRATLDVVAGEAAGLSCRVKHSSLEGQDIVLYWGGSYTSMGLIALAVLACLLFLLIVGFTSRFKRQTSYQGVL
T2 sequence (P61769+P15813 fused): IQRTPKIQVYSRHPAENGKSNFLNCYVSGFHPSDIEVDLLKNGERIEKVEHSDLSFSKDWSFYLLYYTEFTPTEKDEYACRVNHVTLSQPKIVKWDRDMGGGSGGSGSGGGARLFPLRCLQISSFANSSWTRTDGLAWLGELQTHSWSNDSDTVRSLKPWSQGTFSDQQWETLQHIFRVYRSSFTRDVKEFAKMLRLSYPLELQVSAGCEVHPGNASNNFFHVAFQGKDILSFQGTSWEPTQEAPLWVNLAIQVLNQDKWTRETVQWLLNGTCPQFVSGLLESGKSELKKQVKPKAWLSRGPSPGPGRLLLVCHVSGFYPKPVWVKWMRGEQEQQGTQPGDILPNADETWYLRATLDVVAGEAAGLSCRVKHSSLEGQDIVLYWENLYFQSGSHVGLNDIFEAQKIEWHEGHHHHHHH
Sequence of hCD1d (P61769+P15813 fused): as above

Regarding `C[C@H](CCC(=O)O)[C@H]1CC[C@H]2[C@@H]3CC[C@@H]4C[C@H](O)CC[C@]4(C)[C@H]3C[C@H](O)[C@]12C` [Deoxycholate, sodium deoxycholate], the Kd in experiment [1] (setting [3]) was greater than 10000 µM. Besides, in experiment [2], the “binding to hCD1d by ITF (in words)” value is “No significant binding”. Further, on hCD1d, the ΔTm aveage was -10 °C, the “ΔT m (NanoDSF)” value is −10.0 ± 0.3 °C and the “detergent concentration at which hCD1d appeared to unfold” value (“detergent concentration … to unfold” below) is greater than 200 µM. For the same molecule, the “ΔT m (NanoDSF)” value at hCD1d (listed as Sodium deoxycholate) is −10.0 ± 0.3 °C.

Consider `CCCCCCCCO[C@@H]1O[C@H](CO)[C@@H](O)[C@H](O)[C@H]1O` [ODG, n‐octyl‐β‐D‐glucopyranoside], for which the Kd in experiment [1] (setting [3]) is greater than 10000 µM. The “binding to hCD1d by ITF (in words)” value in experiment [2] was “No significant binding; also recorded: minimal concentration‐dependent fluorescence changes”. Besides, the “F-F0/F0 (rep 1-3)” value in experiment [2] (Concentration (M) 0.000977) is on record as 0. For the same molecule, at hCD1d, the ΔTm aveage is -0.83 °C; the “ΔT m (NanoDSF)” value is −0.8 ± 0.4 °C; the “ΔT m (nanoDSF), lipid/hCD1d” value is −0.2 to −0.8 °C; the “ΔT m, detergent class summary” value is −1 to −2 °C.

Consider `C[C@H](CCC(=O)NCCC[N+](C)(C)CCCS(=O)(=O)[O-])[C@H]1CC[C@H]2[C@@H]3[C@H](O)C[C@@H]4C[C@H](O)CC[C@]4(C)[C@H]3C[C@H](O)[C@]12C` [CHAPS, 3‐((3‐cholamidopropyl) dimethylammonio)‐1‐propanesulfonate], for which the Kd in experiment [1] (setting [4]) worked out at 269 µM. For the same molecule, the “binding to hCD1d by ITF (in words)” value in experiment [2] is reported as “observable binding”. The “F-F0/F0 (rep 1-3)” value in experiment [2] (3.0518e-8 M detergent) was 0. In experiment [2] (setting [5]), the “F-F0/F0 (rep 1-3)” value is 0.1904 and 0.2276 and 0.116. Also, the Kd in experiment [2] (read-out: K D (ITF), detergent with 100 nM hCD1d, 25°C, 1X PBS pH 7.4, apparent) is less than 400 µM. Besides, at hCD1d, the ΔTm aveage is -1.3 °C; the “ΔT m (NanoDSF)” value is −1.3 ± 0.4 °C; the “ΔT m, detergent class summary” value was −1 to −2 °C.

Tween 20: the “F-F0/F0 (rep 1-3)” value was 0 in experiment [2] (3.0518e-8 M detergent); 0.397 and 0.3783 and 0.411 in experiment [2] (7.8125e-6 M detergent); 0.321 and 0.292 and 0.428 in experiment [2] (1.5625e-5 M detergent); 0.321 and 0.2971 and 0.409 in experiment [2] (3.125e-5 M detergent); 0.469 and 0.4298 and 0.387 in experiment [2] (6.25e-5 M detergent); 0.384 and 0.3339 and 0.39 in experiment [2] (0.000125 M detergent). Also, the “F-F0/F0 (rep 1-3)” value was 0.511 and 0.3507 and 0.554 in experiment [2] (0.00025 M detergent); 0.462 and 0.3634 and 0.631 in experiment [2] (0.0005 M detergent). In addition, the Kd in experiment [2] (setting [6]) worked out at 4.9 µM; in experiment [2] (setting [3]), 4.9 ± 0.7 µM. In addition, the ΔTm aveage at hCD1d is -8.33 °C. Besides, the “ΔT m (NanoDSF)” value at hCD1d is -8.3 ± 0.2 °C. Besides, on hCD1d, the “ΔT m (nanoDSF), lipid/hCD1d” value was “≈ −8.3 °C”. Besides, the “ΔT m, detergent class summary” value on hCD1d is −8 to −10 °C.

Regarding `CCCCCCCCCCCCCCCC[N+](C)(C)C` [CTAB, hexadecyltrimethylammonium bromide], the Kd was 41.5 µM in experiment [1] (setting [4]) and 41.5 ± 6.5 µM in experiment [1] (setting [7]). Further, the “F-F0/F0 (rep 1-3)” value in experiment [2] (3.0518e-8 M detergent) is 0; in experiment [2] (3.125e-5 M detergent) it was 0.613 and 0.517 and 0.672; in experiment [2] (6.25e-5 M detergent) it was 0.966 and 1.08 and 1.22; in experiment [2] (0.000125 M detergent), 1.45 and 1.3 and 1.29; in experiment [2] (0.00025 M detergent), 1.44 and 1.52 and 1.46; in experiment [2] (0.0005 M detergent), 1.55 and 1.65 and 1.44. Further, the “F-F0/F0 (rep 1-3)” value in experiment [2] (setting [5]) was 1.83 and 1.56 and 1.71. Also, on hCD1d, the ΔTm aveage was -14.17 °C. Further, on hCD1d, the “ΔT m (NanoDSF)” value is −14.2 ± 0.8 °C. Moreover, at hCD1d, the “ΔT m, detergent class summary” value is −12 to −15 °C. In addition, the “detergent concentration … to unfold” value at hCD1d was greater than 200 µM.

With Tween 80, the “F-F0/F0 (rep 1-3)” value in experiment [2] (6.1035e-9 M detergent) was 0; in experiment [2] (7.8125e-7 M detergent), 0.1677 and 0.1078 and 0.1575; in experiment [2] (1.5625e-6 M detergent), 0.2804 and 0.1624 and 0.168; in experiment [2] (3.125e-6 M detergent) it was 0.6451 and 0.4306 and 0.4698; in experiment [2] (6.25e-6 M detergent), 0.9699 and 0.8276 and 0.7611; in experiment [2] (1.25e-5 M detergent) it was 0.863 and 0.6745 and 0.8384. Also, the “F-F0/F0 (rep 1-3)” value in experiment [2] (2.5e-5 M detergent) was 1.041 and 0.837 and 0.8177; in experiment [2] (5e-5 M detergent), 1.186 and 0.8687 and 0.9274; in experiment [2] (0.0001 M detergent), 1.309 and 1.057 and 0.8857; in experiment [2] (0.0002 M detergent), 1.646 and 1.2423 and 1.107. Further, the values for the Kd in experiment [2] (setting [6]) and in experiment [2] (setting [3]) were 4.59 µM and 4.6 ± 0.9 µM, respectively. Moreover, on hCD1d, the ΔTm aveage was -9.7 °C. Besides, the “ΔT m (NanoDSF)” value on hCD1d is -9.7 ± 0.4 °C. In addition, the “ΔT m, detergent class summary” value at hCD1d is −8 to −10 °C.

In the case of `CCCCCCCCCCCCOS(=O)(=O)O` [SDS, sodium dodecyl sulfate], the Kd in experiment [1] (setting [4]) was determined as 35.5 µM. In addition, the Kd in experiment [1] (setting [7]) worked out at 35.5 ± 22.6 µM. For the same molecule, the “F-F0/F0 (rep 1-3)” value in experiment [2] (3.0518e-8 M detergent) was found to be 0. In addition, at hCD1d, the ΔTm aveage was -13.07 °C; the “ΔT m (NanoDSF)” value is −13.1 ± 0.7 °C; the “ΔT m, detergent class summary” value was −12 to −15 °C; the “detergent concentration … to unfold” value was greater than 200 µM.

For `CCCCCCCCCCCC[N+](C)(C)[O-]` [LDAO, lauryldimethylamine‐N‐oxide], the Kd in experiment [1] (setting [3]) was greater than 10000 µM. Moreover, in experiment [2], the “binding to hCD1d by ITF (in words)” value is “observable binding”. Also, the “F-F0/F0 (rep 1-3)” value in experiment [2] (3.0518e-8 M detergent) is 0; in experiment [2] (1.2207e-7 M detergent), 0.07548 and 0.05543 and 0.06384; in experiment [2] (4.8828e-7 M detergent), 0.06847 and 0.06205 and 0.06021; in experiment [2] (0.00025 M detergent), 0.1026 and 0.1076 and 0.1826; in experiment [2] (setting [5]), 0.4171 and 0.3604 and 0.4782. Also, the ΔTm aveage on hCD1d is -13.43 °C. At hCD1d, the “ΔT m (NanoDSF)” value was −13.4 ± 0.1 °C. Moreover, on hCD1d, the “ΔT m, detergent class summary” value is −12 to −15 °C. Besides, the “detergent concentration … to unfold” value on hCD1d is greater than 200 µM.
